According to ChEMBL document CHEMBL1201862, “PubChem BioAssay data set” (2004):
Values joined by “and” are separate entries in the source; they are usually repeats but may differ in a detail not shown here. Equal entries are not always repeated. Active and inactive are the calls of the source.

Assays:
[1] = inhibitors of firefly luciferase expression or activity, dose response, H4 neuroglioma cells, luminescence (AID 1990); format: functional, cell-based
[2] = luciferase reporter signal reduction – luminescence, H4-C neuroglioblastoma cells, dose response (AID 2458); format: functional, cell-based;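 further: H4 neuroglioblastoma cells stably carrying a luciferase reporter gene fusion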
[3] = inhibitors of SNCA 5'UTR-driven reporter translation, confirmation, H4 neuroglioma cells, luminescence (AID 1988); format: functional, cell-based
[4] = cytotoxicity in HEK-293T cells, dose response, cytotoxicity control for TCR NF-kB inhibitor project, luminescence, T-cell screen hits (AID 489026); format: functional, cell-based;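 further: cells exposed to compound about 14 hours before the viability readout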
[5] = cytotoxicity toward DRD oncogenic fibroblasts, dose response, cell-based, non-viral oncogenic, luminescence (AID 1934); format: functional; conditions: Homo sapiens
BJ [6] = assay: cells; format: functional, cell-based; conditions: Homo sapiens
[7] = Luminescence Cell-Based Dose Response HTS to Identify Inhibitors of 5'UTR Stem-Loop Driven Prion Protein mRNA Translation in H4 Neuroglioblastoma Cells. [Related pubchem assays: 1827 (Project Summary), 1813 (Primary HTS)]; format: functional
[8] = inhibitors of SNCA 5'UTR-driven translation, confirmation, luminescence, H4 neuroglioblastoma cells, dose confirmation (AID 2454); format: functional, cell-based;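 further: H4 neuroglioblastoma cells carrying an alpha-synuclein 5'UTR luciferase reporter; potency for inhibition of the luciferase signal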
BJ [9] = assay: cytotoxicity toward BJ-TERT-LT-ST fibroblasts, dose response, cell-based, RAS-independent, luminescence (AID 1935); format: functional; conditions: Homo sapiens;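 further: BJ fibroblasts immortalized with TERT plus LT and ST oncogenes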
cells = format: functional, cell-based
[10] = HEp-2 cell cytotoxicity, dose response, cytotoxicity control for RSV inhibitor project, HTS (AID 2410); format: functional; conditions: human respiratory syncytial virus
BJ [11] = assay: cytotoxicity toward BJ-TERT fibroblasts, dose response, cell-based, RAS-independent, luminescence (AID 1933); format: functional; conditions: Homo sapiens
HT-1080 = assay: cytotoxicity in HT1080 fibrosarcoma cells, cell-based, fluorescence readout (AID 620); format: functional; conditions: Homo sapiens
[12] = biological target: Luciferin 4-monooxygenase (Photinus pyralis, UniProt P08659); assay: Counter Screen for Luciferase-based Assay Positives. [Related pubchem assays: 620, 618, 411 ]
[13] = biological target: T1, Neuropeptide Y receptor type 1 (Homo sapiens, UniProt P25929); assay: NPY-Y1 receptor antagonist potency, dose response, cell-based (AID 1277); format: functional
T1 sequence (P25929 whole entry): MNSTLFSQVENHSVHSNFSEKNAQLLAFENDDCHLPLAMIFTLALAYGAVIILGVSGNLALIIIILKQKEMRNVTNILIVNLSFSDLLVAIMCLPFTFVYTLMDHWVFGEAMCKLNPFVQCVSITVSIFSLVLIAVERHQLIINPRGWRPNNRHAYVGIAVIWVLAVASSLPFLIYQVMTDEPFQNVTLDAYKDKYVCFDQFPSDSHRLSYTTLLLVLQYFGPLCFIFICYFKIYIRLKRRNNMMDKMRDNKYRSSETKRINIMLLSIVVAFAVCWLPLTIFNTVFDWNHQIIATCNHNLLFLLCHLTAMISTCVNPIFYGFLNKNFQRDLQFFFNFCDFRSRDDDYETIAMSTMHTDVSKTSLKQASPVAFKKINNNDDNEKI

[14] = control 3'UTR Renilla luciferase suppression, dose response, counter-screen for Shn3 inhibitor project, cell-based, Clone20-Shn3RL, cherry-picked (AID 624133); format: functional
[15] = biological target: T2, Neuropeptide Y receptor type 2 (Homo sapiens, UniProt P49146); assay: NPY-Y2 antagonist potency, selectivity check, dose response, counter-screen for NPY-Y1 antagonist project, cell-based (AID 1278); format: functional
T2 sequence (P49146 whole entry): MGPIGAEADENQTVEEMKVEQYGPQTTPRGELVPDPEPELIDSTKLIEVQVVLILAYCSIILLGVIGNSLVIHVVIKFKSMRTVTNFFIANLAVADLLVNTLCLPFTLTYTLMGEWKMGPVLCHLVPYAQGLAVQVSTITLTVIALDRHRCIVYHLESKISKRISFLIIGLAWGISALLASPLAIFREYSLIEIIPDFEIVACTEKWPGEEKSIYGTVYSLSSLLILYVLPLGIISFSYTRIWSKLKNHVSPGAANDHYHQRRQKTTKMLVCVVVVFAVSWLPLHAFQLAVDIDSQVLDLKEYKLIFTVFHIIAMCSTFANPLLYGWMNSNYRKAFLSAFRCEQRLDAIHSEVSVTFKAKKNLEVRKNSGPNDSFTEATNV

[16] = biological target: T2, Neuropeptide Y receptor type 2; assay: Fluorescence-based cell-based high-throughput dose response assay for agonists of NPY-Y2. [Related pubchem assays: 1703 (Screening assay (CNGC inhibitors).), 1359 (Screening assay (NPY-Y2 potentiators or agonists).), 1304 (Screening assay (NPY-Y1 potentiators or agonists).), 1710 (Screening assay (NPY-Y2 agonists).), 1791 (Summary AID.)]; format: functional
HEK293 [17] = assay: Fluorescence-based counterscreen for potentiators or agonists of NPY-Y2: cell-based high-throughput dose response assay to identify inhibitors of cyclic nucleotide gated ion channel (CNGC) activity. In this assay, the parental HEK293 cell line transfected with a cyclic-nucleotide gated ion channel (CNGC)-based cAMP sensor is used to measure inhibition of isoproterenol-induced CNGC activity by test compound.; format: functional; conditions: Homo sapiens
[18] = Shn3 3'UTR reporter inhibitors, dose response, cell-based, Clone20 osteoblasts, firefly luciferase, cherry-picked (AID 624132); format: functional;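 further: firefly luciferase luminescence from reporter carrying the Shn3 3'UTR in osteoblasts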
[19] = biological target: E3 ubiquitin-protein ligase Mdm2 (Homo sapiens, UniProt Q00987); assay: enhancers of MDM2-luciferase reporter signal, concentration-effect titration, project on inhibitors of MDM2 ubiquitin ligase, cellular assay, luminescent readout, 384-well plate format (AID 1394); format: functional;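 further: MDM2 E3 inhibitors raise luminescence so EC50 is for signal enhancement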
[20] = HepG2 cell cytotoxicity, dose response, cytotoxicity control for Shn3 inhibitor project, CellTiter-Glo, cherry-picked (AID 624134); format: functional, cell-based
HEK293 [21] = assay: cells; conditions: Homo sapiens
[22] = biological target: T1, Neuropeptide Y receptor type 1; assay: Fluorescence-based counterscreen for agonists of NPY-Y2: cell-based high-throughput dose response assay for agonists of NPY-Y1.; format: functional
HEK293 [23] = assay: cells; conditions: Homo sapiens; remark: listed apart in the source
[24] = biological target: T3, Heat shock factor protein 1 (Mus musculus, UniProt P38532); assay: HSF1 potentiators in luciferase reporter cells, confirmation, cell-based, NIH3T3, luminescence, dose retest (AID 435004); format: functional;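 further: stress induced by proteasome inhibitor MG132 added 30 min after compound; luciferase reporter driven by HSF1 response element in NIH3T3 cells; actives raise luminescence as potentiators of the MG132 stress response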
T3 sequence (P38532 whole entry): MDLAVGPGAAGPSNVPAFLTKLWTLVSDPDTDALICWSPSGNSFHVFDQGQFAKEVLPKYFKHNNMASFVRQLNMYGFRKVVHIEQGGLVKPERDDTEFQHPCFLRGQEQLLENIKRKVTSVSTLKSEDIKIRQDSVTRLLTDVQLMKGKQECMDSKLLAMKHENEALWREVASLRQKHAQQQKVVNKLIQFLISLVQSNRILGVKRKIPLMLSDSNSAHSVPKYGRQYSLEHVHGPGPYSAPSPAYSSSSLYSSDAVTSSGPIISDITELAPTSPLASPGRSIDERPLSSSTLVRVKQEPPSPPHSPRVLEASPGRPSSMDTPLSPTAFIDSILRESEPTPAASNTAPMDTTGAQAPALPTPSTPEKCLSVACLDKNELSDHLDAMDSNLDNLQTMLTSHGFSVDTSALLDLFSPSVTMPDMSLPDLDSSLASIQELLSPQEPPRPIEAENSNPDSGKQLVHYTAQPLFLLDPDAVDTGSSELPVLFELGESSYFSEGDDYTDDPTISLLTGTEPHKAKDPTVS

[25] = biological target: G2/mitotic-specific cyclin-B1 (Homo sapiens, UniProt P14635); assay: Counterscreen assay for inhibitors of Wee1 degradation: dose response cell-based assay to identify inhibitors of cyclin B degradation. [Related pubchem assays: 1410, 1321 ]; format: functional
[26] = biological target: T4, Voltage-gated N-type calcium channel alpha-1B subunit/Amyloid beta A4 precursor protein-binding family A member 1 (Homo sapiens, UniProt Q00975+Q02410); format: protein assay
[27] = Luminescence-based counterscreen assay for KLF5 inhibitors: dose response cell-based high throughput screening assay to identify cytotoxic compounds using the IEC-6 intestinal epithelial cell line. [Related pubchem assays: 1700 (Primary screen.), 1834 (Confirmation screen.), 1858 (Summary AID.), 1905 (Counterscreen.)]; format: functional
BJ [28] = assay: cytotoxicity toward Ras-transformed BJeLR fibroblasts, dose response, cell-based, alamar blue fluorescence, cherrypicked samples (AID 2631); format: functional; conditions: Homo sapiens;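 further: confirmatory dose-response assay in RAS-dependent BJ fibroblasts engineered with TERT, LT and ST, with cytotoxicity read by fluorescence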
Wee1-like protein kinase = Wee1-like protein kinase (Homo sapiens, UniProt P30291); assay: Dose Response Cell-based Assay for Inhibitors of Wee1 Degradation. [Related pubchem assays: 1410, 1321 ]; format: functional
[29] = biological target: T4, Voltage-gated N-type calcium channel alpha-1B subunit/Amyloid beta A4 precursor protein-binding family A member 1; format: protein assay; remark: listed apart in the source
Cytochrome P450 2D6 = Cytochrome P450 2D6 (Homo sapiens, UniProt P10635); assay: qHTS Assay for Inhibitors and Substrates of Cytochrome P450 2D6. [Related pubchem assays: 410 ]; format: ADME; conditions: read-out: Potency
Cytochrome P450 3A4 = Cytochrome P450 3A4 (Homo sapiens, UniProt P08684); conditions: Potency;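 further: confirmatory qHTS run detecting inhibitors and substrates of CYP3A4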
Sequence of Cytochrome P450 3A4 (P08684 whole entry): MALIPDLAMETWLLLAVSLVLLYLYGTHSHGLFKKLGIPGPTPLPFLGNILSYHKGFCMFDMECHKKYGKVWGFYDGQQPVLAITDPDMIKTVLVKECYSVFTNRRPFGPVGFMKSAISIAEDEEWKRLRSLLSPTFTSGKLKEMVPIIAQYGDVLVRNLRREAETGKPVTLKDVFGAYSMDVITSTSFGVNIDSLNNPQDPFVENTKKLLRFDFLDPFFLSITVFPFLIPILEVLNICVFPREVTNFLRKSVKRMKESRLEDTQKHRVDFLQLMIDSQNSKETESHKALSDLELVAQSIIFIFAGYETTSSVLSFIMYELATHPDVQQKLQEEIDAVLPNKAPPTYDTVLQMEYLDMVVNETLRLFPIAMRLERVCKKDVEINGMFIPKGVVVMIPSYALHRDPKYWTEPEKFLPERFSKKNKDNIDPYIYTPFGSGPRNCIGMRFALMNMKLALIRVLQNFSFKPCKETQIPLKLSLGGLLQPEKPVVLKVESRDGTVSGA

T4 sequence (Q00975 whole entry): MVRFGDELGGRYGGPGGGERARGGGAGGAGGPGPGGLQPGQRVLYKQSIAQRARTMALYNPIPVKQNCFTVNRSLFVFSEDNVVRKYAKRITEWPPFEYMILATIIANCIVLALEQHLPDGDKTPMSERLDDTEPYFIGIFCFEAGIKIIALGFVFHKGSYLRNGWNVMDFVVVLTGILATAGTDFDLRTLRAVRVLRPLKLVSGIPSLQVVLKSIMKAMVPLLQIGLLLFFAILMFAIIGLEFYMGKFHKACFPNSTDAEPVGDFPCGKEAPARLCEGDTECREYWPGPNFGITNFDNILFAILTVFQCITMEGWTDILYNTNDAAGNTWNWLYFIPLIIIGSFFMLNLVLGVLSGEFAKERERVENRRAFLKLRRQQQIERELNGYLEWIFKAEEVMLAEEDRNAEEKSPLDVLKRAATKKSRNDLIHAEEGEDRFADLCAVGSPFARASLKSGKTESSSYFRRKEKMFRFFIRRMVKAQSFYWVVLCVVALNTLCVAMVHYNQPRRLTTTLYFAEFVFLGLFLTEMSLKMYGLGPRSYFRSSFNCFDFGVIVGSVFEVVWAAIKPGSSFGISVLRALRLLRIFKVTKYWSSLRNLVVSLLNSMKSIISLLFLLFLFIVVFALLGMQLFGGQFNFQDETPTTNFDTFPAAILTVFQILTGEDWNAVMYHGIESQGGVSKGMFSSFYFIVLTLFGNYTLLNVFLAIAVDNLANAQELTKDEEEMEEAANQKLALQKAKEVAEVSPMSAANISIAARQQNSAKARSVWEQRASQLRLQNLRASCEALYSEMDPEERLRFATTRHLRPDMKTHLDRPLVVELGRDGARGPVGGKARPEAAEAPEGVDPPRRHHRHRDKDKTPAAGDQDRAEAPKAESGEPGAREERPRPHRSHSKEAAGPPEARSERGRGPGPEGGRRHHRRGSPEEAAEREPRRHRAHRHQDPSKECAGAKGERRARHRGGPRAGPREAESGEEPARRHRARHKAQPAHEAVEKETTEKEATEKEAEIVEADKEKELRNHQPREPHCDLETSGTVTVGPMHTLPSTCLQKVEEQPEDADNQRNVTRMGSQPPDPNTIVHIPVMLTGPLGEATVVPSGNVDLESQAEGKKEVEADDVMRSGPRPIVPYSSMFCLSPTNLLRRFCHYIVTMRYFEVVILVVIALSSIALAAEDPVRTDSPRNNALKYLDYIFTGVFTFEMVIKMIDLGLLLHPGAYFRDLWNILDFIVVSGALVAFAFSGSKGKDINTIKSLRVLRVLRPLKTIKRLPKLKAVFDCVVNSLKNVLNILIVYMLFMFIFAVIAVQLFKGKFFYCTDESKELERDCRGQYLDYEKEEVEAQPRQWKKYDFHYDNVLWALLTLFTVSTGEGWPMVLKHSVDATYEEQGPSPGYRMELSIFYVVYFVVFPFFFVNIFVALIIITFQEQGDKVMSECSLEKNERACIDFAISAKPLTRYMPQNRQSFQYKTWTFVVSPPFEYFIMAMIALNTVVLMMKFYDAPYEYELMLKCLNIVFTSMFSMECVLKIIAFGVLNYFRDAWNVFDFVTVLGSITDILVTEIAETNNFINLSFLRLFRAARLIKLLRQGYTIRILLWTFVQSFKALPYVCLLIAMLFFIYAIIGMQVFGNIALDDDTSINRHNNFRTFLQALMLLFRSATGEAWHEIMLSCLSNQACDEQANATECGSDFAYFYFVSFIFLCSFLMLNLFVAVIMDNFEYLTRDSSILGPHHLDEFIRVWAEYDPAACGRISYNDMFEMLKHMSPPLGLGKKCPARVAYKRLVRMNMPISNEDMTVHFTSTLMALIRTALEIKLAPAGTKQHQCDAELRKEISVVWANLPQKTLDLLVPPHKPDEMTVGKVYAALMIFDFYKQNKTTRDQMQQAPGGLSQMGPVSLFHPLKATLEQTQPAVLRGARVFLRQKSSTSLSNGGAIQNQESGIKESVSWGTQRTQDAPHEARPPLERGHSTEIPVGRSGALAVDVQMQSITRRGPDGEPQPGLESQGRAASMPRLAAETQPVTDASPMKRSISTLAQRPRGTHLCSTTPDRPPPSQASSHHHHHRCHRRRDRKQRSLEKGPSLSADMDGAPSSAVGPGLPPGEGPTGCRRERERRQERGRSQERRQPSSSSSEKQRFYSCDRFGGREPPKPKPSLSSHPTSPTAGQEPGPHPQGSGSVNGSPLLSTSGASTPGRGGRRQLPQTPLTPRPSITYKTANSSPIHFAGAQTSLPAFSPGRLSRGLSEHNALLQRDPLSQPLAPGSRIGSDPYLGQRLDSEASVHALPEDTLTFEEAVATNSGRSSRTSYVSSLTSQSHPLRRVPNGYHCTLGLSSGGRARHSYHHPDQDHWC
T4 sequence (Q02410 whole entry): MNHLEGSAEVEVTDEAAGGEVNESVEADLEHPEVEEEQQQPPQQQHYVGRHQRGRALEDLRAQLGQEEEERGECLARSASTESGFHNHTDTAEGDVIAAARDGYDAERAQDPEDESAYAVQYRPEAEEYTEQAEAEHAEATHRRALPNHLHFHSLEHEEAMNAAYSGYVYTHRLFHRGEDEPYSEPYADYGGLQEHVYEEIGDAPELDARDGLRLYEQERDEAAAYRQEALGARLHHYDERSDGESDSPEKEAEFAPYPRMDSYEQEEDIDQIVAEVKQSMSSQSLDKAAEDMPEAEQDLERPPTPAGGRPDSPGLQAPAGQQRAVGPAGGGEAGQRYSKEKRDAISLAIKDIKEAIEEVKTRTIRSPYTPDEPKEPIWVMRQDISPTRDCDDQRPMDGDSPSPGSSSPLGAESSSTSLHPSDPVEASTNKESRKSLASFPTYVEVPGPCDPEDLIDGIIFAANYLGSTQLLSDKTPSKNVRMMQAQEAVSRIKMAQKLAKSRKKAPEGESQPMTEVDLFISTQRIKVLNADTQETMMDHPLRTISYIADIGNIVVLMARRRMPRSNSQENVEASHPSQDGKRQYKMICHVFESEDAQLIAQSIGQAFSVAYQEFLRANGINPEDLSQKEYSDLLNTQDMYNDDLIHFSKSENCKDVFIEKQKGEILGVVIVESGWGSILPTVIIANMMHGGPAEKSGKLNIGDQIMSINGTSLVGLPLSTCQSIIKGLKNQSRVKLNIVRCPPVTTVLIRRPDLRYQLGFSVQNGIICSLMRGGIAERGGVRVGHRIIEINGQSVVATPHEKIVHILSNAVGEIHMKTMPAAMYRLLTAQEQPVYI
Sequence of E3 ubiquitin-protein ligase Mdm2 (Q00987 whole entry): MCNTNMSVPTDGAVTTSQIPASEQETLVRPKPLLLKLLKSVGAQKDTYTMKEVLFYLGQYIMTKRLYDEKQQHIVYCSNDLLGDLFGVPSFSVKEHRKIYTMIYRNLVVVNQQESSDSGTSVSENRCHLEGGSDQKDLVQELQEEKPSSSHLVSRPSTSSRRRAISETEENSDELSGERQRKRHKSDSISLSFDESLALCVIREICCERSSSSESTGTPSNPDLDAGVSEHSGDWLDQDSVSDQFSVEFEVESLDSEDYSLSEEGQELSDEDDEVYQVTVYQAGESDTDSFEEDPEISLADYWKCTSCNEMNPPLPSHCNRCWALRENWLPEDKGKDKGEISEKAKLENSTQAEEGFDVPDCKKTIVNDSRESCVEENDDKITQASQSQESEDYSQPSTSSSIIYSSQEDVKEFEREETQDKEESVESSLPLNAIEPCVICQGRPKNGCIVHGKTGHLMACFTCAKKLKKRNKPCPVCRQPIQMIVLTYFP
Sequence of G2/mitotic-specific cyclin-B1 (P14635 whole entry): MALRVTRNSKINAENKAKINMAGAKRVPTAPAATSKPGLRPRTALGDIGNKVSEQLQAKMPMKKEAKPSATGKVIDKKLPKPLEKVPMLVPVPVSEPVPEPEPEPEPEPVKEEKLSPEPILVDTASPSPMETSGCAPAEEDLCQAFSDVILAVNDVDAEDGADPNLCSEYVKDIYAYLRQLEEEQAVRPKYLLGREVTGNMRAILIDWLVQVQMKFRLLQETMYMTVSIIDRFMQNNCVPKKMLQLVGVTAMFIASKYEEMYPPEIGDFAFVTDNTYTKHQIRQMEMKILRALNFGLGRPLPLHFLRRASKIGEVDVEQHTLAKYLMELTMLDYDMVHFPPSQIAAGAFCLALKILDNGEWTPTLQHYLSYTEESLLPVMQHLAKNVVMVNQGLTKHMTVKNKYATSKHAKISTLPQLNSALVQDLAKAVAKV
Sequence of Cytochrome P450 2D6 (P10635 whole entry): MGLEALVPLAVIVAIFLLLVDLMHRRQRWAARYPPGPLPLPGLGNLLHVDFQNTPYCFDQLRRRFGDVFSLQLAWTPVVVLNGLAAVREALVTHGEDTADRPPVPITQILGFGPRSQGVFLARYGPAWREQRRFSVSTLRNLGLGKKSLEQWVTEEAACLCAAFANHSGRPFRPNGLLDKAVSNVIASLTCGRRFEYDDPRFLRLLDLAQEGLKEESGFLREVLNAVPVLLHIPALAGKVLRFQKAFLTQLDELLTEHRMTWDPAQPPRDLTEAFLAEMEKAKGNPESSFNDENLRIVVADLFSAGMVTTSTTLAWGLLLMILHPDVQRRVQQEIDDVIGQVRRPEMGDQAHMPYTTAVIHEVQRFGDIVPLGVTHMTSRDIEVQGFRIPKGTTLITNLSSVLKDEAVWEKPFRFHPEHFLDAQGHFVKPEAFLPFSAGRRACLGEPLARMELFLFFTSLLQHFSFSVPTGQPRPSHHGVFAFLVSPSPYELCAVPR

SMILES: CC(=O)c1sc2c(c1OC(=O)c1ccc(Cl)cc1Cl)c(=O)n(-c1ccccc1)c(=S)n2-c1ccccc1
- EC50 [1]: 0.134 µM (active)
- EC50 [2]: 0.578 µM (active)
- EC50 [3]: < 0.1 µM (active)
- IC50 [4]: > 80 µM (inactive)
- EC50 [5]: 0.36 µM (inconclusive)
- EC50 (BJ [6]): 104 µM (active)
- EC50 [7]: < 0.1 µM (active)
- EC50 [8]: 0.716 µM (active)
- EC50 (BJ [9]): 6.47 µM (inconclusive)
- EC50 (cells): 0.444 µM (active)
- CC50 [10]: 1.59 µM (active)
- EC50 (BJ [11]): 0.201 µM (active)

SMILES: O=c1/c(=C/c2ccccn2)sc2nc3ccccc3n12
- EC50 (HT-1080): > 50 µM (not active)
- EC50 [12]: < 0.2 µM (active)

SMILES: C/C1=C\[C@@H](C)C/C=C/[C@H]2[C@@H]3O[C@]3(C)[C@@H](C)[C@H]3[C@H](Cc4c[nH]c5ccccc45)NC(=O)[C@]32C(=O)/C=C/C(=O)[C@@H]1O
- IC50 [13]: 10.6 µM (not active)
- AC50 [14]: 5.25 µM (active)
- IC50 [15]: 4.76 µM (active)
- EC50 [16]: > 35.4 µM (not active)
- EC50 (HEK293 [17]): > 35.4 µM (not active)
- AC50 [18]: 6.44 µM (active)
- EC50 [5]: 5.67 µM (active)
- EC50 (BJ [6]): 6.74 µM (inconclusive)
- EC50 [19]: 12 µM (not active)
- EC50 (BJ [9]): 10.7 µM (inconclusive)
- AC50 [20]: 24.2 µM (active)
- EC50 (HEK293 [21]): > 59.6 µM (inactive)
- EC50 [22]: > 35.4 µM (not active)
- EC50 (HEK293 [23]): > 59.6 µM (inactive)
- EC50 [24]: 6.24 µM (inconclusive)
- EC50 (BJ [11]): 3.85 µM (inconclusive)

SMILES: Cc1nc2ccccn2c1-c1csc(Nc2cccc(O)c2)n1
- EC50 [25]: > 49.7 µM (not active)
- EC50 [5]: 1.96 µM (active)
- EC50 (BJ [6]): 82.4 µM (inconclusive)
- IC50 [26]: 10 µM (active)
- IC50 [27]: > 13.3 µM (not active)
- EC50 (BJ [9]): 1.55 µM (inconclusive)
- EC50 (BJ [28]): 0.205 µM (active)
- EC50 (Wee1-like protein kinase): > 49.7 µM (not active)
- EC50 (BJ [11]): 7.42 µM (active)
- IC50 [29]: > 50 µM (inactive)

SMILES: Cc1cccc(C#Cc2ccccc2)n1
- AC50 (Cytochrome P450 2D6): 39.8 µM (inconclusive)
- AC50 (Cytochrome P450 3A4): 20 µM (inconclusive) and 1.26 µM (inconclusive)
